Laboratory results as given in PMC6446301, “Evaluation of therapeutic effects of FAK inhibition in murine models of atherosclerosis” (BMC Research Notes, 2019).

Legend:
[1] = tested on: IGF-1R (insulin-like growth factor 1 receptor kinase); conditions: cited from earlier work
[2] = Clinical biochemistry markers in serum, intervention trial apoE KO mice; format: in vivo, mouse; conditions: Intervention (6 + 6 weeks), mean ± SEM
Excerpt: (§1) To assess the therapeutic effect of FAK inhibition, the following three different designs were applied: prevention (1) and therapeutic intervention (2) in apoE KO mice, and therapeutic intervention (3) in LDLr KO mice. The prevention trial consisted of 8-week concurrent treatment with the HF/HC diet following 1 week of pre-loading of the HF/HC diet (Additional file 3: Figure S2A). The therapeutic intervention trial consisted of 6- and 8-week treatment after 6- and 8-week pre-loading of the HF/HC diet in apoE KO and LDLr KO mice, respectively (Additional file 3: Figure S2B). Body weight and food intake were measured once weekly. The mice were euthanized under terminal inhalation anesthesia with isoflurane followed by blood collection from abdominal vein.
(§2) Atherosclerotic lesion area was evaluated in the aorta by en face analysis (Additional file 4: Figure S3A) and in aortic root by cross-sectional analysis (Additional file 4: Figure S3B). The aorta was subjected to Sudan IV staining, and total area of the plaque lesion (TAOL) and area of whole aorta from arch without the region of brachiocephalic artery to common iliac artery (AOWA) were measured using the Definiens imaging software. Area of lesion (%) was calculated by the following formula; Area of lesion (%) = TAOL/AOWA × 100. After en face analysis, the aorta was washed and then blotted dry, weighed, minced, and total lipid was extracted with chloroform/methanol. Total and free cholesterol levels in the aortic extracts were determined with an enzymatic colorimetric assay (Wako Pure Chemical Industries Ltd.). Cross sections were cut at 5 μm thickness and 6 serial sections were collected every 50 μm along the aortic root. Lesion area analysis was made on the cross sections subjected to hematoxylin and eosin (HE) staining. Three representative sections derived from 3 segments were quantified per mouse. Lesion area values from the 3 sections were summed up. Histological features using serial cross sections were subjected to staining for EvG and anti Mac-3 antigen. Clinical biochemistry markers in serum was evaluated using DRICHEM 7000 (FUJIFILM Medical, Japan). Statistical comparison of control and compound 12-treated groups was carried out with a Mann–Whitney test (two-tailed) using GraphPad Prism.
(§3) Data are mean ± SEM. *; P < 0.05, **; P < 0.01 ***; P < 0.001 as compared with the control.

[3] = tested on: LDLr KO mice; test: Atherosclerosis therapeutic intervention trial in LDLr KO mice; format: in vivo, mouse; conditions: 0.03% food admixture
Method: (§4) The mutant male mice, apoE KO (B6.129P2-Apoe^tm1Unc/J) and LDLr KO (B6.129S7-Ldlr^tm1Her/J) at the age of 7 weeks, were purchased from Charles River Laboratories, and acclimated to the facility for 7 days. The mice were housed at 25 °C with a 12:12 h light–dark cycle, and food and water were provided ad libitum. The HF/HC diet D12108 containing 1.25% cholesterol and 20% fat was purchased from Research Diets. A selective small molecule FAK inhibitor Compound 12 (Additional file 1: Figure S1; a 2-phenylamino-pyrimidin-4-ylamino-2,3-dihydro-isoindol-1-one derivative) was administrated as food admixture at a concentration of 0.03%. Compound 12 has an IC50 of 6 nM on FAK and no activity on insulin receptor kinase, insulin-like growth factor 1 receptor kinase, cyclin-dependent kinase 1 and Src (Additional file 2: Table S1) as described by Kawahara et al.).
as §1, §2

[4] = tested on: c-Src; conditions: cited from earlier work
[5] = Clinical biochemistry markers in serum, intervention trial LDLr KO mice; format: in vivo, mouse; conditions: Intervention (8 + 8 weeks), mean ± SEM
Excerpt: as §1, §2, §3

[6] = tested on: CDK1 (cyclin-dependent kinase 1); conditions: cited from earlier work
[7] = tested on: apoE KO mice; test: Atherosclerosis prevention trial in apoE KO mice; format: in vivo, mouse
Method: as §4, §1, §2

[8] = tested on: apoE KO mice; test: Atherosclerosis therapeutic intervention trial in apoE KO mice; format: in vivo, mouse
Method: as §4, §1, §2

[9] = Clinical biochemistry markers in serum, prevention trial apoE KO mice; format: in vivo, mouse; conditions: Prevention (8 weeks), mean ± SEM
Excerpt: as §1, §2, §3

[10] = tested on: IRK (insulin receptor kinase); conditions: cited from earlier work
[11] = tested on: FAK; conditions: cited from earlier work
[12] = means, radiolabeled ATP, DELFIA or TR-FRET method
[13] = therapeutic intervention, 0.03% food admixture

COc1ccc(Nc2ncc(Cl)c(Nc3ccc(N4CCC(N5CCN(C)CC5)CC4)c4c3C(=O)N(C)C4)n2)c(OC)c1 [Compound 12, 7-[5-Chloro-2-(2,4-dimethoxy-phenylamino)-pyrimidin-4-ylamino]-2-methyl-4-[4-(4-methyl-piperazin-1-yl)-piperidin-1-yl]-2,3-dihydro-isoindol-1-one]
activity on insulin-like growth factor 1 receptor kinase [1]: no activity
IC50 [1, 12]: > 10 µM
ALB [2]: 2.3 ± 0.04 g/dL
ALP [2]: 469 ± 37^*** U/L
ALT [2]: 26 ± 1.3 U/L
AST [2]: 108 ± 7.0 U/L
BUN [2]: 42 ± 2.5 mg/dL
CPK [2]: 227 ± 48 U/L
CRE [2]: 0.3 ± 0.02^*** mg/dL
LDH [2]: 590 ± 36^* U/L
T-BIL [2]: 0.5 ± 0.05 mg/dL
T-Chol [2]: 1,016 ± 53^* mg/dL
TG [2]: 93 ± 6.7^** mg/dL
cholesterol content in aorta ([3]; intervention 8 + 8 weeks, P < 0.01 vs control): significantly reduced
lesion area of the aorta (en face analysis) ([3]; intervention 8 + 8 weeks, normalized to Control at 8 weeks, control at 16 weeks 8.51%): 5.83%
body weight change ([3]; therapeutic intervention): no remarkable changes
food intake ([3]; therapeutic intervention): no remarkable changes
tolerability ([3]; therapeutic intervention): generally well tolerated
activity on Src [4]: no activity
IC50 [4, 12]: > 10 µM
ALB [5]: 2.2 ± 0.05 g/dL
ALP [5]: 406 ± 34^** U/L
ALT [5]: 24 ± 1.6^** U/L
AST [5]: 97 ± 8.0 U/L
BUN [5]: 32 ± 1.2 mg/dL
CPK [5]: 196 ± 76^** U/L
CRE [5]: 0.3 ± 0.02^*** mg/dL
LDH [5]: 295 ± 38 U/L
T-BIL [5]: 0.6 ± 0.05 mg/dL
T-Chol [5]: 714 ± 51^*** mg/dL
TG [5]: 273 ± 21 mg/dL
activity on cyclin-dependent kinase 1 [6]: no activity
IC50 [6, 12]: > 10 µM
body weight change ([7]; 0.03% food admixture): no remarkable changes
food intake ([7]; 0.03% food admixture): no remarkable changes
tolerability ([7]; 0.03% food admixture): generally well tolerated
histological features of atherosclerotic plaques (HE, EvG, anti Mac-3) ([7]; 8 weeks, 0.03% food admixture): foam cell rich, reduced fibrous and lipid core regions
reduction of lesion area of the aorta (en face analysis) vs control ([7]; 8 weeks, 0.03% food admixture with HF/HC diet): 41.2%
cholesterol content in aorta ([7]; 8 weeks, 0.03% food admixture, P < 0.01 vs control): significantly reduced
lesion area of aortic root (cross-sectional analysis) ([7]; 8 weeks, 0.03% food admixture, P < 0.05 vs control): significantly reduced
lesion area of the aorta (en face analysis, TAOL/AOWA x 100) ([7]; 8 weeks, 0.03% food admixture, control 8.92%): 5.24%
lesion area of aortic root (cross-sectional analysis) ([8]; intervention 6 + 6 weeks, 0.03% food admixture): appeared to be reduced
cholesterol content in aorta ([8]; intervention 6 + 6 weeks, 0.03% food admixture, P < 0.05 vs control): significantly reduced
lesion area of the aorta (en face analysis) ([8]; intervention 6 + 6 weeks, 0.03% food admixture, normalized to Control at 6 weeks, control at 12 weeks 8.03%): 4.75%
change of lesion area (mm^2) of aortic root vs control ([8]; intervention 6 + 6 weeks, 0.03% food admixture, printed in Fig. 2e): -15%
reduction of lesion area of the aorta (en face analysis) vs control ([8]; intervention, 6 + 6 weeks, 0.03% food admixture with HF/HC diet): 40.9%
body weight change [8, 13]: no remarkable changes
food intake [8, 13]: no remarkable changes
tolerability [8, 13]: generally well tolerated
ALB [9]: 2.2 ± 0.07^* g/dL
ALP [9]: 554 ± 31^** U/L
ALT [9]: 25 ± 1.6 U/L
AST [9]: 115 ± 15 U/L
BUN [9]: 41 ± 2.5 mg/dL
CPK [9]: 700 ± 362 U/L
CRE [9]: 0.3 ± 0.02^*** mg/dL
Glc [9]: 167 ± 16 mg/dL
Insulin [9]: 751 ± 109 pg/mL
LDH [9]: 535 ± 47^** U/L
T-BIL [9]: 0.5 ± 0.03 mg/dL
T-Chol [9]: 1,221 ± 102^* mg/dL
TG [9]: 94 ± 8.4^* mg/dL
activity on insulin receptor kinase [10]: no activity
IC50 [10, 12]: > 3.3 µM
IC50 [11]: 0.006 µM
